Measured values published in patent US8388931B2, “99m Tc-labeled triphenylphosphonium derivative contrasting agents and molecular probes for early detection and imaging of breast tumors” (priority 2008, dated 2013).

Columns and labels:
[1] = Comparative study: myocardial and hepatic uptake of 99mTc-MIBI versus 99mTc-Mito10-MAG3; assay type: in vivo, rats; details: rat, in vivo
Procedure: (§1) ^99mTc-MIBI of clinical formulation was purchased from Bristol Myers Squibb. […] Dynamic images were acquired in identical fashion following 99mTc-MIBI injection.
In a comparative study, the myocardial uptake of ^99mTc-MIBI peaked at 2.70±0.4% ID/g within minutes after injection, and remained above 2.41±0.3% ID/g for at least 90 min. Comparatively, the myocardial uptake level of ^99mTc-Mito10-MAG 3 is 10, 40, and 120 fold lower than the uptake level of ^99mTc-MIBI at 3, 10 and 30 min after injection. The hepatic uptake of ^99mTc-MIBI was at 0.37±0.14% ID/g at 30 min after injection.

[2] = tested on: DMBA-induced breast carcinoma; test: In vivo gamma camera imaging of DMBA-induced breast carcinoma in rats; design: species or system rats (female Sprague Dawley); details: longitudinal experiment, at the time of detection
Procedure: The animal protocol was approved by institutional IACUC review and followed NIH guidelines. The rat model of DMBA-induced breast carcinoma was used.
As an initial feasibility study, rats were induced with 65 mg/kg DMBA dissolved in sesame oil via a single oral gavage to the stomach. […] Static images were acquired on a GE XRT gamma camera using a high-resolution parallel-hole collimator, 512×512 matrix size, 22.5×22.5 cm field of view, 140±15 keV energy window, 100 k counts. Unexpectedly, apart from the established palpable carcinomas, additional small (millimeter size) tumors were discovered by this imaging technique in the same animals. This finding promoted a longitudinal study to investigate the early detection of neoplastic growth using ^99mTc-Mito10-MAG3.
Six 48-day-old female rats were injected with 65 mg/kg DMBA. At each week after DMBA induction, the rats were imaged using the following protocol. Each rat was anesthetized with 1.6% isoflurane in room air supplemented with oxygen. […] Dynamic images were continuously acquired at one frame per min for 90 min using the imaging parameters set forth hereinabove. The weekly imaging regiment was continued for all six rats until palpable tumors became detectable, which typically takes place between seven to nine weeks after the administration of DMBA. Due to the relatively short physical half-life of ^99mTc (6 hr), no residual signal, therefore, no cross-contamination is detectable from the previous injection the week before.
as §1
The female Sprague Dawley rats have six pairs of mammary glands, among which glands a and b are away from the hepatic/gastrointestinal region. (FIG. 9, Panel A). Since the typical biodistribution of a lipophilic radiopharmaceutical in the abdominal region precludes reliable imaging of breast tissues below the diaphragm, mammary glands shown in Panels C, D, E and F were excluded from the data analysis. This exclusion also was based on the fact that such spatial distribution of mammary glands is irrelevant to that of the human anatomy.
Imaging data analysis was carried out using an inbuilt software, by carefully drawing a region of interest (ROI) on the tumor site to determine the radioactivity counts in the ROI. […] Radioactivity counts were determined in each ROI. Tumor-to-normal and tumor-to-muscle ratios were calculated as the count ratio between the two ROIs.
The rats were sacrificed by CO2 asphyxiation and the number and location of the mammary tumors were recorded at necropsy. The tumors were dissected, with the diameter and weight measured and documented. […]

[99Tc].[C-]#[N+]CC(C)(C)OC.[C-]#[N+]CC(C)(C)OC.[C-]#[N+]CC(C)(C)OC.[C-]#[N+]CC(C)(C)OC.[C-]#[N+]CC(C)(C)OC.[C-]#[N+]CC(C)(C)OC [^99mTc-MIBI, ^99mTc-methoxyisobutylisonitrile, reference compound]
peak myocardial uptake [1]: 2.70±0.4 % ID/g | tumor-to-normal ratio ([2]; ROI count ratio tumor vs contralateral normal mammary gland): 2.04±0.49 | tumor-to-muscle ratio ([2]; ROI count ratio tumor vs thigh muscle): 5.10±0.31
